# Measurements from patent US20240148831A1, “COMBINATION TREATMENTS FOR CHOLESTASIS” (THE BOARD OF REGENTS OF THE UNIVERSITY OF OKLAHOMA, priority 2022, published 2024).
# How the values were obtained:
# Format in all cases: in vivo
# Cyp2c70 KO mice [1] = test: Liver histopathology, serum transaminases and liver mRNA markers after 4 weeks of treatment in Cyp2c70 KO mice; details: female Cyp2c70 KO mice
# Text: (§1) The Cyp2c70 KO mice with Exon 4 deletion were generated by CRISPR/Cas-mediated genome engineering. Cas9 and gRNA (gRNA1 matching reverse strand of the Cyp2c70 gene: […] (SEQ ID NO:1); gRNA2 matching forward strand of the Cyp2c70 gene: […] (SEQ ID NO:2)) were co-injected into fertilized eggs of C57BL/6J mice. One F0 male founder mouse was identified by PCR followed by sequencing analysis to confirm deletion of an 888 bp genome region containing the entire Exon 4. This F0 founder was bred to a WT C57BL/6J mouse to obtain 3 F1 Cyp2c70+/−females confirming germline transmission. Further breeding of the F1 females with WT C57BL/6J mice (the Jackson Lab, Bar Harbor, ME) yielded WT mice and Cyp2c70+/−mice. Subsequent breeding of the Cyp2c70+/−offspring yielded WT mice and Cyp2c70−/− mice (Cyp2c70 KO). The Cyp2c70 KO mice were then bred via KO×KO breeding scheme. The WT littermates were used to generate WT mice via WT×WT breeding scheme. […] Mice were housed in micro-isolator cages with Biofresh performance bedding (Pelleted cellulose) under 7 AM-7 PM light cycle and 7 PM-7 AM dark cycle. GSK was mixed with chow diet to achieve an estimated 5 mg/kg/day intake based on 5 g/day food intake by a 25 g mouse. AAV-Null or AAV-FGF15 was injected via tail vein at a dose of 1×10^11 GC/mouse. Mice were euthanized following a 6 h fast from 9 am to 3 pm. Animals received humane care according to the criteria outlined in the “Guide for the Care and Use of Laboratory Animals.” All animal protocols were approved by the Institutional Animal Care and Use Committee of the University of Oklahoma Health Sciences Center.
# Liver tissues and colon tissues were fixed in 4% paraformaldehyde and paraffin embedded. Hematoxylin and Eosin (H&E) staining was performed with an automated stainer. Sirius Red staining was performed with Direct Red 80 solution (Sigma #365548, St. Louis, MO). For immunohistochemistry, paraffin embedded tissues were deparaffinized and rehydrated, and after antigen retrieval, […] sections were incubated first with blocking buffer (5% BSA and 5% goat serum in PBS) for 1 h and then blocking buffer containing primary antibodies overnight at 4° C. After washing with PBS, the sections were incubated with secondary antibodies in SignalStain® Boost IHC Detection Reagent (Cell Signaling, #8114, Danvers, MA) for 1 h. Signal was then visualized using a DAB kit (Cell Signaling, #11724, Danvers, MA). The sections were counterstained with Hematoxylin. Images are acquired by using an EVOS M5000 imaging system (ThermoFisher Scientific, Grand Island, NY).
# Total liver RNA was purified with Trizol (Sigma-Aldrich, St. Louis, MO). […] 18S was measured and used for normalization. […]
# Cyp2c70 KO mice [2] = test: Fecal bile acid composition and concentration by LC-MS in Cyp2c70 KO mice; details: 4 weeks
# Text: as §1
# (§2) Bile acids were extracted from liver, whole gallbladder bile, whole small intestine with content, and dried feces in 90% ethanol. To collect fecal sample, an individual mouse was placed in a jar briefly and fresh feces were collected. Total bile acid amount was measured by a bile acid assay kit. Bile acid pool was calculated as the total bile acids in liver, gallbladder and small intestine. Bile acid composition in the gallbladder bile and the pooled fecal extracts was analyzed on a Thermo Scientific UltiMate 3000 UHPLC with a Waters Cortecs C18 column and a TSQ Quantis triple quadrupole mass spectrometer. Standard curves for bile acids and internal standard glycine-CDCA-d4 were generated with purified compounds and relative area under the curve (AUC) was calculated. To measure T-CDCA-d4 metabolism in fecal slurry mixtures, pooled fresh fecal sample from each group was resuspended in a reaction buffer consisting of 10% PBS (pH=7.4) and 90% 3 mM sodium acetate (pH=5.2) to a final suspension of 4 mg fecal sample/ml. T-CDCA-d4 was added to a final concentration of 20 ug/ml and the mixture was incubated at 37° C. for 6 h. An equal amount of methanol was added and the mixture was incubated on ice for 1 h to precipitate protein. After centrifugation, an aliquot of the supernatant was vacuum dried and resuspended in injection buffer (0.1% formic acid, 30% acetonitrile, 70% HPLC water), which was used for LC-MS measurement of bile acids as described above.
# Cyp2c70 KO mice [3] = test: Gut barrier integrity (colon H&E and ZO-1 immunohistochemistry) in Cyp2c70 KO mice; details: 4 weeks
# Text: as §1
# Liver tissues and colon tissues were fixed in 4% paraformaldehyde and paraffin embedded. Hematoxylin and Eosin (H&E) staining was performed with an automated stainer. Sirius Red staining was performed with Direct Red 80 solution (Sigma #365548, St. Louis, MO). […]
# Cyp2c70 KO mice [4] = test: Bile acid metabolism (fecal total bile acids, bile acid pool, gallbladder bile acid composition, liver CYP7A1/CYP8B1 mRNA) in Cyp2c70 KO mice
# Text: as §1, §2
# Total liver RNA was purified with Trizol (Sigma-Aldrich, St. Louis, MO). Reverse transcription was performed by using Oligo dT primer and SuperScript III reverse transcriptase (ThermoFisher Scientific, Grand Island, NY). Real-time PCR was performed on a Bio-Rad CFX384 Real-time PCR system with iQ SYBR Green Supermix (Bio-Rad, Hercules, CA). 18S was measured and used for normalization. The comparative CT (Ct) method was used to determine the relative mRNA expression with the control group arbitrarily set as “1”.
# [5] = female Cyp2c70 KO mice, vs untreated mice
smiles,measurement,setting,value
"CCCC[C@]1(CC)CS(=O)(=O)c2cc(CNC(CC(=O)O)CC(=O)O)c(OC)cc2[C@@H](c2ccccc2)N1 [GSK, GSK2330672]",reduction of liver p21 mRNA,Cyp2c70 KO mice [1]; 4 weeks of treatment,did not affect
same,"serum transaminases (ALT, AST)",Cyp2c70 KO mice [1]; 4 weeks of treatment,not altered
same,portal inflammation (inflammatory infiltration) and ductular reaction,"Cyp2c70 KO mice [1]; 4 weeks of treatment from 12 weeks of age, F4/80, CK19, H&E stain",largely ineffective
same,portal fibrosis,"Cyp2c70 KO mice [1]; 4 weeks of treatment, Sirius Red stain",largely ineffective
same,fecal DCA abundance (relative),Cyp2c70 KO mice [2]; female Cyp2c70 KO mice,increased
same,fecal LCA abundance (relative),"Cyp2c70 KO mice [2]; female Cyp2c70 KO mice, untreated ~90% LCA",slightly reduced
same,fecal DCA amount (absolute),Cyp2c70 KO mice [2]; [5],higher
same,fecal LCA amount (absolute),Cyp2c70 KO mice [2]; [5],higher
same,fecal DCA amount,Cyp2c70 KO mice [2]; male Cyp2c70 KO mice,increased
same,fecal LCA amount,Cyp2c70 KO mice [2]; male Cyp2c70 KO mice,did not increase
same,colon ZO-1 level (immunohistochemistry),Cyp2c70 KO mice [3]; female Cyp2c70 KO mice,failed to restore
same,colon ZO-1 level (immunohistochemistry),Cyp2c70 KO mice [3]; male Cyp2c70 KO mice,failed to restore
same,histological features of the colon epithelium (H&E),Cyp2c70 KO mice [3]; male and female Cyp2c70 KO mice,did not reveal abnormal histological features
same,hepatic CYP8B1 expression,"Cyp2c70 KO mice [4]; female Cyp2c70 KO mice, 4 weeks",markedly increased
same,gallbladder T-CDCA abundance,"Cyp2c70 KO mice [4]; female Cyp2c70 KO mice, 4 weeks, untreated printed as −70%",~40%
same,gallbladder T-DCA abundance,"Cyp2c70 KO mice [4]; female Cyp2c70 KO mice, 4 weeks, untreated ~1%",~30%
same,gallbladder T-CA abundance,"Cyp2c70 KO mice [4]; female Cyp2c70 KO mice, 4 weeks, vs untreated",without affecting
same,increase of fecal bile acid loss (excretion),"Cyp2c70 KO mice [4]; female Cyp2c70 KO mice, after 2 weeks treatment",~2 fold
same,reduction of total bile acid pool,"Cyp2c70 KO mice [4]; female Cyp2c70 KO mice, after 4 weeks of treatment",~40%
same,gallbladder T-DCA abundance,"Cyp2c70 KO mice [4]; male Cyp2c70 KO mice, 4 weeks",increasing
same,liver CYP7A1 mRNA expression,"Cyp2c70 KO mice [4]; male Cyp2c70 KO mice, 4 weeks",induction
same,liver CYP8B1 mRNA expression,"Cyp2c70 KO mice [4]; male Cyp2c70 KO mice, 4 weeks",induction
same,fecal bile acid excretion,"Cyp2c70 KO mice [4]; male Cyp2c70 KO mice, after 2 weeks of treatment",increased
same,reduction of bile acid pool size,"Cyp2c70 KO mice [4]; male Cyp2c70 KO mice, after 4 weeks of treatment",~60%
